Assay results reported in ChEMBL document CHEMBL6103650, “Hybrid Molecules of Benzothiazole and Hydroxamic Acid as Dual-Acting Biofilm Inhibitors with Antibacterial Synergistic Effect against Pseudomonas aeruginosa Infections” (J Med Chem, 2025).

Tests used:
Pseudomonas aeruginosa [1] = assay: Antibacterial activity against Pseudomonas aeruginosa PAO1 assessed as inhibition of bacterial growth incubated for 24 hrs by serial dilution method; type: functional
Pseudomonas aeruginosa [2] = assay: Antibiofilm activity against Pseudomonas aeruginosa PAO1 assessed as inhibition of biofilm formation incubated for 24 hrs by crystal violet staining based analysis; type: functional, organism-based; settings: PAO1, 24 h
Pseudomonas aeruginosa [3] = assay: Antibiofilm activity against Pseudomonas aeruginosa PA14 assessed as inhibition of biofilm formation incubated for 24 hrs by crystal violet staining based analysis; type: functional, organism-based; settings: PA14, 24 h
Pseudomonas aeruginosa [4] = assay: Antibiofilm activity against Pseudomonas aeruginosa PAO1 assessed as reduction in pFe(III) content incubated for 24 hrs; type: functional
Pseudomonas aeruginosa [5] = assay: Antibacterial activity against Pseudomonas aeruginosa PAO1 infected in BALB/c mouse wound infection model assessed as bacterial survival rate in wound at 0.5 mg/mL administered to wound once a day for 3 days in dropwise manner; type: functional; settings: PAO1, 72 h, time 3 day
Pseudomonas aeruginosa [6] = assay: Antibacterial activity against Pseudomonas aeruginosa PAO1 infected in BALB/c mouse wound infection model assessed as reduction in wound area at 0.5 mg/mL administered to wound once a day for 3 days and measured after 9 days in dropwise manner; type: functional; parameters: scale not given: the % may be the effect or the level left; settings: time 12 day
Pseudomonas aeruginosa [7] = assay: Antibacterial activity against Pseudomonas aeruginosa PAO1 infected in BALB/c mouse wound infection model assessed as reduction in wound area at 0.0025 mg/mL administered to wound once a day for 3 days and measured after 9 days in dropwise manner; type: functional; parameters: scale not given: the % may be the effect or the level left; settings: time 12 day

| SMILES | MIC (Pseudomonas aeruginosa [1]) [µM] | IC50 (Pseudomonas aeruginosa [2]) [µM] | IC50 (Pseudomonas aeruginosa [3]) [µM] | Activity (Pseudomonas aeruginosa [4]) | survival at 500 µg/mL (Pseudomonas aeruginosa [5]) [%] | Activity (Pseudomonas aeruginosa [6]) [%] | Activity (Pseudomonas aeruginosa [7]) [%] |
| --- | --- | --- | --- | --- | --- | --- | --- |
| O=C(NO)c1ccc(CNC(=O)c2nc3ccccc3s2)cc1 | > 256 | 3.85 | 11.1 |  |  |  |  |
| O=C(CCCCCCNC(=O)c1nc2ccccc2s1)NO | > 256 | 14.3 | 36.4 |  |  |  |  |
| O=C(CCCCCCNC(=O)CNc1nc2ccc(Cl)cc2s1)NO | > 256 | 13.6 | 24.4 |  |  |  |  |
| O=C(Cn1cc(CNc2nc3ccc(Cl)cc3s2)nn1)NO | > 256 | 10.2 | 17.5 |  |  |  |  |
| O=C(CCCCCCNC(=O)CNc1nc2ccccc2s1)NO | > 256 | 8.77 | 14 |  |  |  |  |
| O=C(CCCCCNC(=O)CNc1nc2ccccc2s1)NO | > 256 | 1.58 | 4.26 |  |  |  |  |
| O=C(CCCCNC(=O)CNc1nc2cc(Cl)ccc2s1)NO | > 256 | 7.02 | 15 |  |  |  |  |
| Cc1ccc2nc(NCC(=O)Nc3ccc(CC(=O)NO)cc3)sc2c1 | > 256 | 1.64 | 4.33 |  |  |  |  |
| COc1ccc(NCC(=O)NCCCCC(=O)NO)cc1 | > 256 | > 80 | > 100 |  |  |  |  |
| COc1ccc2nc(NCC(=O)NCc3ccc(CC(=O)NO)cc3)sc2c1 | > 256 | 6.23 | 15.6 |  |  |  |  |
| COc1ccc2nc(NCc3cn(CC(=O)NO)nn3)sc2c1 | > 256 | 1.94 | 5.09 |  |  |  |  |
| O=C(CCCCCNC(=O)CNc1nc2ccc(Cl)cc2s1)NO | > 256 | 20.9 | 36.6 |  |  |  |  |
| COc1ccc2nc(NCC(=O)NCCCCN)sc2c1 | > 256 | > 80 | > 100 |  |  |  |  |
| O=C(CCCCNC(=O)CNc1nccs1)NO | > 256 | 14.8 | 30.9 |  |  |  |  |
| COc1cccc2sc(NCC(=O)NCCCCC(=O)NO)nc12 | > 256 | 0.51 | 1.89 |  |  |  |  |
| O=C(CCCCNC(=O)CNc1nc2ccccc2s1)NO | > 256 | 3.33 | 7.02 |  |  |  |  |
| COc1ccc2nc(NCC(=O)NCCCC(=O)NO)sc2c1 | > 256 | 5.15 | 15.2 |  |  |  |  |
| O=C(Cc1ccc(CNC(=O)CNc2nc3cc(F)ccc3s2)cc1)NO | > 256 | 3.17 | 7.9 |  |  |  |  |
| O=C(Cn1cc(CNc2nc3ccc(C(F)(F)F)cc3s2)nn1)NO | > 256 | 2.03 | 5.42 |  |  |  |  |
| Cc1c(O)c(=O)ccn1C [DEFERIPRONE] |  |  |  | 20.13 |  |  |  |
| NC[C@H]1O[C@H](O[C@H]2[C@H](O)[C@@H](O[C@H]3O[C@H](CO)[C@@H](O)[C@H](N)[C@H]3O)[C@H](N)C[C@@H]2N)[C@H](N)C[C@@H]1O [TOBRAMYCIN] |  |  |  |  | 0.22 | 36 | 41 |
| Cc1ccc2nc(NCC(=O)NCCCCC(=O)NO)sc2c1 | > 256 | 0.79 | 2.21 |  |  |  |  |
| O=C(CCCCNC(=O)CNc1nc2cc(F)ccc2s1)NO | > 256 | 14.7 | 28.9 |  |  |  |  |
| O=C(CCCCCNC(=O)CNc1nc2ccc(C(F)(F)F)cc2s1)NO | > 256 | 3.67 | 11.7 |  |  |  |  |

| SMILES | MIC (Pseudomonas aeruginosa [1]) [µM] | IC50 (Pseudomonas aeruginosa [2]) [µM] | IC50 (Pseudomonas aeruginosa [3]) [µM] | Activity (Pseudomonas aeruginosa [4]) | survival at 500 µg/mL (Pseudomonas aeruginosa [5]) [%] | Activity (Pseudomonas aeruginosa [6]) [%] | Activity (Pseudomonas aeruginosa [7]) [%] |
| --- | --- | --- | --- | --- | --- | --- | --- |
| O=C(CCCCNC(=O)CNc1nc2ccc(F)cc2s1)NO | > 256 | 2.01 | 5.26 |  |  |  |  |
| O=C(CCCCNC(=O)CNc1nc2ccc(C(F)(F)F)cc2s1)NO | > 256 | 1.72 | 4.26 |  |  |  |  |
| O=C(CCCCCCNC(=O)CNc1nc2ccc(C(F)(F)F)cc2s1)NO | > 256 | 3.25 | 6.65 |  |  |  |  |
| O=C(CCCCNC(=O)CNc1nc2ccc(Br)cc2s1)NO | > 256 | 1.49 | 4.49 |  |  |  |  |
| COc1ccc2nc(NCC(=O)NCCCCCC(=O)NO)sc2c1 | > 256 | 1.6 | 3.85 |  |  |  |  |
| O=C(CCCNC(=O)c1nc2ccccc2s1)NO | > 256 | 1.89 | 4.29 |  |  |  |  |
| O=C(Cc1ccc(CNC(=O)CNc2nc3cc(Br)ccc3s2)cc1)NO | > 256 | 2.48 | 6.3 |  |  |  |  |
| Cc1ccc2nc(NCC(=O)NCc3ccc(CC(=O)NO)cc3)sc2c1 | > 256 | 2.03 | 5.6 |  |  |  |  |
| COC(=O)CCCCNC(=O)CNc1nc2ccc(OC)cc2s1 | > 256 | 14.7 | 18.4 |  |  |  |  |
| COc1cccc2sc(NCC(=O)Nc3ccc(CC(=O)NO)cc3)nc12 | > 256 | 1.42 | 3.92 |  |  |  |  |
| COc1ccc2nc(NCC(=O)NC3CCC(C(=O)NO)CC3)sc2c1 (centres undefined) | > 256 | 6.64 | 14.7 |  |  |  |  |
| CCOc1ccc2nc(NCC(=O)NCc3ccc(CC(=O)NO)cc3)sc2c1 | > 256 | 4 | 13.4 |  |  |  |  |
| COc1cccc2sc(NCC(=O)NCc3ccc(CC(=O)NO)cc3)nc12 | > 256 | 2.85 | 7.78 |  |  |  |  |
| COc1cccc(NCC(=O)NCCCCC(=O)NO)c1 | > 256 | > 80 | > 100 |  |  |  |  |
| COc1ccc2sc(NCC(=O)NCCCCC(=O)NO)nc2c1 | > 256 | 1.29 | 3.41 |  |  |  |  |
| O=C(Cc1ccc(CNC(=O)CNc2nc3ccc(C(F)(F)F)cc3s2)cc1)NO | > 256 | 3.16 | 7.3 |  |  |  |  |
| O=C(Cc1ccc(CNC(=O)CNc2nc3ccc(Br)cc3s2)cc1)NO | > 256 | 1.17 | 2.93 |  |  |  |  |
| CC[C@H]1OC(=O)[C@H](C)[C@@H](O[C@H]2C[C@@](C)(OC)[C@@H](O)[C@H](C)O2)[C@H](C)[C@@H](O[C@@H]2O[C@H](C)C[C@H](N(C)C)[C@H]2O)[C@](C)(O)C[C@@H](C)CN(C)[C@H](C)[C@@H](O)[C@]1(C)O [AZITHROMYCIN] | > 256 | 11 | 38.5 |  |  |  |  |
| COc1ccccc1NCC(=O)NCCCCC(=O)NO | > 256 | 26.9 | 54.5 |  |  |  |  |
| O=C(CCCCCNC(=O)c1nc2ccccc2s1)NO | > 256 | 10.2 | 19.1 |  |  |  |  |
| O=C(CCCCNC(=O)CNc1ccccc1)NO | > 256 | > 80 | > 100 |  |  |  |  |
| O=C(CCCCNC(=O)CNc1nc2ccc(Cl)cc2s1)NO | > 256 | 2.05 | 5.67 |  |  |  |  |
| O=C(Cn1cc(CNC(=O)c2nc3ccccc3s2)nn1)NO | > 256 | 12.8 | 24.4 |  |  |  |  |
